In publication PMC9369419 (International Journal of Molecular Sciences, 2022):

Key:
Type in all cases: cell-based
[1] = molecular target: T1, human mGluR5 (Homo sapiens, UniProt P41594); test: mGluR5 functional assay (IP1 accumulation, HEK293A cells); details: 0.1 mM compound
T1 construct: Flag; expressed in transfected cells; host or cells: HEK293A (transient, Lipofectamine 2000)
Source text: Dulbecco’s modified Eagle medium (DMEM), dialyzed fetal bovine serum (FBS), Opti-MEM, penicillin-streptomycin, Dulbecco’s phosphate-buffered saline (DPBS), Hank’s balanced salt solution (HBSS) and Lipofectamine 2000 were purchased from Thermo Fisher Scientific (Waltham, MA, USA). An IP-One Gq kit was purchased from Cisbio (Codolet, France). Quisqualate and poly-D-lysine (PDL) hydrobromide were purchased from Sigma-Aldrich (St. Louis, MO, USA). Falcon clear, tissue culture-treated 96-well plates were from Corning Inc. (Corning, NY, USA). OptiPlate-384 white, opaque 384-well plates were from PerkinElmer, (Waltham, MA, USA). L-AP4 and LY341495 were purchased from Tocris Bioscience (Bristol, UK). The HEK293A cells were a kind gift from Dr. Asuka Inoue (Tohoku University, Sendai, Japan). Plasmids encoding human mGluR4 and Flag-tagged human mGluR5 were kind gifts from Jesper M. Mathiesen (University of Copenhagen, København, Denmark). […]
Cell culture and IP1 Assay. […] IP1 accumulation was measured on an EnVision 2104 Multilabel Reader using a 340/60 nm excitation filter and 615/8.5 nm (donor) and 665/7.5 nm (acceptor) emission filters. HTRF ratios were calculated as the ratio of acceptor over donor emission (665 nm/615 nm) and converted to IP1 concentrations with an IP1 standard curve according to the instructions from the kit manufacturer.

[2] = molecular target: T2, GluA2(Q)i (Rattus norvegicus, UniProt P19491); test: Intracellular Ca2+ imaging assay, HEK293 cells expressing GluA2(Q)i; details: 10 µM compound, Ca2+ fluorescence, read-out: inhibition of agonist-evoked responses at GluA2
T2 construct: expressed in transfected cells
T2 sequence (P19491 22-883 isoform P19491-2 limits assumed): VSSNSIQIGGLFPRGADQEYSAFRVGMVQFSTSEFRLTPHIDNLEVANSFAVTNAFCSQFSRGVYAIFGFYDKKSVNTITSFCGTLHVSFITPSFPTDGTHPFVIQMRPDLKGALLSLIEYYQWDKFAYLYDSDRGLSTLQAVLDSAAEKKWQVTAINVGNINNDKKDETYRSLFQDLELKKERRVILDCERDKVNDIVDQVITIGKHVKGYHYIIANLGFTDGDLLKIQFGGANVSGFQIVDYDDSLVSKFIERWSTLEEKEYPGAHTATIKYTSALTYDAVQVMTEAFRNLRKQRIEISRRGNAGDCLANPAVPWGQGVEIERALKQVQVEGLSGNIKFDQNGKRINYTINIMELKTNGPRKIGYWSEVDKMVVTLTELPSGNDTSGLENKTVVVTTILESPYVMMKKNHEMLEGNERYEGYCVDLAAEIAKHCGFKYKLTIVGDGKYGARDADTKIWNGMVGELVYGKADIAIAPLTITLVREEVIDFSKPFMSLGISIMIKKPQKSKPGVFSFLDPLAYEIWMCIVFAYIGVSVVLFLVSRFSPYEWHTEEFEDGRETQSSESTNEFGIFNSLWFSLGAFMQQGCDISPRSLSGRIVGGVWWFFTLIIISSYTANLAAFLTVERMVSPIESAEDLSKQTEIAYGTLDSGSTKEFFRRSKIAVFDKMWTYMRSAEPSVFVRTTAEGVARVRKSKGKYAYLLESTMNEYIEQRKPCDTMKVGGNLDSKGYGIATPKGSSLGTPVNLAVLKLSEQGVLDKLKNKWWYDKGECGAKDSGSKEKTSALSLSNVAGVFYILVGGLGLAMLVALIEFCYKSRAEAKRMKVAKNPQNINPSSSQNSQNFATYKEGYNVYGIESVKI
Source text: (§1) For the determination of antagonistic activity of compounds at GluK1, GluK3 and GluA2 receptors, stable HEK293 cell lines expressing rat GluK1b(Q), GluK3a, and GluA2(Q)i were created. A polyclonal stable cell line expressing GluK3a was created as described previously. For the creation of polyclonal stable cell lines expressing GluK1and GluA2 receptors, cDNA encoding blasticidin-S deaminase (blas) enzymes were inserted into the pIRES plasmid vector (Clontech, Mountain View, CA, USA) to create the plasmid vector pRES(blas). […] For functional assays, cells were plated into clear-bottomed, black 96-well fluorescence culture plates (Corning, Vordingborg, Denmark), and when >70% confluent, the cells were loaded with 2 μM Fluo 4-AM calcium sensitive dye (Abcam, Cambridge, UK) and used for the imaging of agonist-evoked changes in intracellular Ca^2+ using a FlexStation I plate reader (Molecular Devices, San Jose, CA, USA). […] Changes in dye fluorescence in response to the addition of an agonist solution were then measured at 538 nm using excitation at 485 nm and emission cut-off at 515 nm. Baseline fluorescence was measured for 16 s before the addition of 50 µL agonist solution to each well of the assay plate, and fluorescence was measured for 120 to 160 s after addition of the agonists. […] Responses were determined in at least triplicate at each compound concentration.

[3] = molecular target: T3, GluK1b(Q) (Rattus norvegicus, UniProt P22756); test: Intracellular Ca2+ imaging assay, HEK293 cells expressing GluK1b(Q); details: 10 µM compound, Ca2+ fluorescence, read-out: inhibition of agonist-evoked responses at GluK1
T3 construct: expressed in transfected cells
T3 sequence (P22756 31-920 isoform P22756-4 limits assumed): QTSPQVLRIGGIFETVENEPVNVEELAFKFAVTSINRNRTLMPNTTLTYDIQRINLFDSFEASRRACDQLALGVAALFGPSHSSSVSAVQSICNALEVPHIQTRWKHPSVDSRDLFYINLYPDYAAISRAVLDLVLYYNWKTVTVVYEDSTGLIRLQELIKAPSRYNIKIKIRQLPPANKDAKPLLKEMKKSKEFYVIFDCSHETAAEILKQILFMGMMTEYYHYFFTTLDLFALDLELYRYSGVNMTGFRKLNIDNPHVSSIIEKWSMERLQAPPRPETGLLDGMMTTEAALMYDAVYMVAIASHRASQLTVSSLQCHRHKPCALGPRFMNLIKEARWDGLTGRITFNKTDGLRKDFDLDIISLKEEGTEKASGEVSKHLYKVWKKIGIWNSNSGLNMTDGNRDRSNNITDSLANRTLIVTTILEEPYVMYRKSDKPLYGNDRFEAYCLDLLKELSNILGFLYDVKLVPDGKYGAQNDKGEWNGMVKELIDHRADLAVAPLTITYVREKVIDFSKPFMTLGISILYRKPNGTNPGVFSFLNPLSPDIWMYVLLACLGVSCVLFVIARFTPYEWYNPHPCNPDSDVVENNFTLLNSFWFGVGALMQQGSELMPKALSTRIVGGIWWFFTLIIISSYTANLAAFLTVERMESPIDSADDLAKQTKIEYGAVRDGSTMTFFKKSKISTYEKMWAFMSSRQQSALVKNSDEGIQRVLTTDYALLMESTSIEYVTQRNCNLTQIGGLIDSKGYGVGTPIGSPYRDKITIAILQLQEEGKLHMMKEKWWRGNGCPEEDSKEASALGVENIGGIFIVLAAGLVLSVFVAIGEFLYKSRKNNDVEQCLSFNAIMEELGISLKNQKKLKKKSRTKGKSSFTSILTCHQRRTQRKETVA
Source text: as §1

T1 sequence (P41594 21-1212): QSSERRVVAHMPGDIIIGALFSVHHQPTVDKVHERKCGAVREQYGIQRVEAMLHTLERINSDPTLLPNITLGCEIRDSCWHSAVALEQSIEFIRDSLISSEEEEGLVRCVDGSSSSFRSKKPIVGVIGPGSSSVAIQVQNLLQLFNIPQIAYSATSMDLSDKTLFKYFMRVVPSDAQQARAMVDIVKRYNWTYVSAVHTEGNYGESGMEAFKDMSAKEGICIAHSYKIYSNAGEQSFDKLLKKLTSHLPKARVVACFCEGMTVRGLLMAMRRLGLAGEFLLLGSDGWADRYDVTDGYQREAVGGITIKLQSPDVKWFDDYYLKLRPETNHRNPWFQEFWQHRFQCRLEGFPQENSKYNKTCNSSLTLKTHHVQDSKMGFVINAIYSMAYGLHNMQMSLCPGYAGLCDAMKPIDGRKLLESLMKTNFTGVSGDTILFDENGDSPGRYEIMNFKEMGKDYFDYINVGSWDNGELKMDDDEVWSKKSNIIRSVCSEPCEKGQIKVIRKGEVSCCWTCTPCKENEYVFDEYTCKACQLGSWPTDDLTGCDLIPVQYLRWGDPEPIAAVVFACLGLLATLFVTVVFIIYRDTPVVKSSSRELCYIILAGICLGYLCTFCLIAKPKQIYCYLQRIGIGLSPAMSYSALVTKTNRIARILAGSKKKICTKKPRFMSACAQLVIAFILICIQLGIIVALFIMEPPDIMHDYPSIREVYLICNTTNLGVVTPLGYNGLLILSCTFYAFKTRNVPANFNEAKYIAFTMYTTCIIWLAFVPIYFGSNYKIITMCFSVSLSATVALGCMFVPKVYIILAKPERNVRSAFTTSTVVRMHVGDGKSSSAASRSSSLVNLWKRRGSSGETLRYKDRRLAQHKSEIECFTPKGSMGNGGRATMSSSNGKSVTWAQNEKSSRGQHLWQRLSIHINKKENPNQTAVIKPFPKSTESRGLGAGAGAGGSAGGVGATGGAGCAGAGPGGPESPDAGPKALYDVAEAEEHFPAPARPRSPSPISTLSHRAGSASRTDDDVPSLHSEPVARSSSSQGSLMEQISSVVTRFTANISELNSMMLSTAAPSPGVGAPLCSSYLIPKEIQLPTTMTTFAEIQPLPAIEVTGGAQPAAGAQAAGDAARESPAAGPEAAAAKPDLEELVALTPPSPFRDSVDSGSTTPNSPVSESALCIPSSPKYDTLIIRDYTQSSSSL

**Q.** How did the “agonist or antagonist activity at mGluR5” value [1] turn out when `O=C(Nn1c(=O)c(=O)[nH]c2cc(C#Cc3cnc4cccnn34)ccc21)c1ccccc1` [Compound 28] was run?
**A.** neither agonistic nor antagonistic

**Q.** What about the inhibition at 10 µM [2] of the same compound?
**A.** < 5%

**Q.** And the inhibition at 10 µM [3]?
**A.** < 5%
